Data on 13 compounds can be found in patent publication US20030220524A1, “Sulfur containing compounds” (priority 2000, published 2003).

Molecules are shown by their SMILES. Like-named read-outs stand apart in the source and are kept apart here.

Assay [1] concerns Aspergillus niger and Aspergillus flavus. Description: Antifungal activity. Particulars: in words; dose not given. It is filed as cell-based. The protocol:
(§1) Sulfur compounds were tested for antifungal activity against pure cultures of Aspergillus niger and Aspergillus flavus supplied by Ward's Natural Science Ltd (St. Catharines, Ontario, Canada). They were maintained on Sabouraud Dextrose Agar.
(§2) For the test, 6 agar plugs (5 mm diameter) were cut from a 5-8 day old colony and homogenized in distilled, sterilized water (2 ml). A portion of this suspension (0.5 ml) was transferred aseptically to a Petri plate with Sabouraud Dextrose Agar (15 ml) and spread evenly over the entire surface. Each plate was supplied with four evenly spaced paper disks (7 mm, Whatman Number 1 filter paper) containing the test compound (0, 25, 50 and 100 μg respectively). Each test compound was applied to the disks as a solution (50 mg compound/10 ml acetone). Control disks were treated with neat acetone (20 μl). Test plates with fungal homogenates and disks were incubated at 18-20° C. for 2 days. For each test four replicate plates were used. The diameter of the clear zone surrounding the disk was taken as the indicator of antifungal activity.

A further assay has as its system Aspergillus flavus. The assay can be described thus: Antifungal paper disk test, diameter of clear zone. It is filed as cell-based. Particulars: for zone of inhibition at 100 µg/disc: read-out: Diameter (mm) of clear Zone A. flavus. Here is the method: as §1
as §2, with “Each plate was supplied with four evenly spaced paper disks (7 mm, Whatman Number 1 filter paper) containing the test compound (0, 25, 50 and 100 μg respectively).” left out

In the next assay the test system is Aspergillus niger. Description: Antifungal paper disk test, diameter of clear zone. It is filed as cell-based. Particulars: for zone of inhibition at 100 µg/disc: read-out: Diameter (mm) of clear Zone A. niger. The protocol: as §1
as §2, with “Each plate was supplied with four evenly spaced paper disks (7 mm, Whatman Number 1 filter paper) containing the test compound (0, 25, 50 and 100 μg respectively).” left out

The test system of a further assay is B1 leukemic cell line. The assay can be described thus: MTT assay. The conditions noted are these: 48 h, read-out: MTT50. It is filed as cell-based, human. Here is the method: All cell lines were assayed as asynchronously growing cells. Leukemic cell lines, OCI-AML-2, OCI-AML-3 (referred to hereafter as AML-2 and AML-3, respectively), NB-4, KK, B1, G2, and W1 were cultured in alpha-minimal essential medium (α-MEM) (Princess Margaret Hospital Media Services) supplemented with 10% fetal bovine serum (FBS) (Sigma, St. Louis, Mo.). Non-transformed, diploid fibroblast lines WI38 and IMR90, were cultured in α-MEM and MEM F-15, respectively supplemented with 10% FBS. Media for IMR90 cells was also supplemented with 1.5 g/L bicarbonate and 1 mM pyruvate. Breast tumour cell lines, MDA-231, SK-BR-3, MCF-7, ZR-751, and melanoma tumour cell lines, WM9, WM983, WM793, 1232, were grown in α-MEM supplemented with 10% fetal bovine serum. Prostate tumour cell lines, DU145 and PC-3, were grown in RPMI 1640 media supplemented with 10% FBS. All cell lines were cultured in the presence of penicillin/streptomycin. Mononucleated cells were isolated from normal bone marrow using Ficoll hypaque and then T-cell depleted. T-cell depletion was performed by incubating the mononucleated bone marrow cells in α-MEM at a concentration of 2×10^7 cells/mL with 10% absor FBS and 10% (v/v) sheep red blood cells for 4 to 16 h. Absor FBS was prepared beforehand by heating FBS at 56° C. for 1 h, incubating with sheep red blood cells at 0.5% (v/v) for 1 h and then filtering the FBS with a […]. The T-cell depleted, mononucleated cells were recovered using Ficoll hypaque and were maintained in α-MEM supplemented with 20% FBS and 10% 5637 ? nditioned media. 5637 conditioned media ? s previously harvested from confluent 5637 cells after a 3 day incubation. Normal bone marrow from bone marrow transplant donor was collected following informed consent according to institutional guidelines.
Approximately 20 mg of each compound was dissolved in 5 mL of ACS grade acetone (Sigma) using a 5 mL volumetric flask. Stock solutions of the compounds were stored in the dark at −20° C. Compounds were diluted prior to each experiment.
Adherent cells were seeded at 67×10^3 cells/mL in a 96 well plate (Falcon, Mississauga, Ontario) the day prior to exposure to compound. Suspension cells were seeded at 27×10^4 cells/mL in a 96 well plate the day of exposure to compound. Mononucleated, T-cell depleted normal bone marrow cells were seeded at 67×10^4 cells/mL in a 96 well plate the day of exposure to compound. Compounds and solvent control were added to cells and assayed in triplicate or sextuplet. Following 48 h of incubation at 37° C. with 5% CO2, 40 μL of a 5 mg/mL solution of 3-[4,5-dimethylthiazol-2-yl]-2,5-diphenyltetrazolium bromide (MTT) substrate (Sigma) in Dulbecco's phosphate-buffered saline (D-PBS) was added. After 4 h of incubation at 37° C. with 5% CO2, the resulting violet formazan precipitate was solubilized by the addition of 80 μL of a 0.01 M HCI, 10% sodium dodecyl sulfate (SDS; Sigma) solution overnight at 37° C. with 5% CO2. The plates were then analyzed using the BioRad Benchmark Microplate Reader (BioRad Laboratories, Hercules, Calif.) at 570 nm to determine the optical density of the samples. MTT data was analyzed using Prism 3.0 (GraphPad Software, Inc., San Diego, Calif.) by the Chou-Talalay method. MTT graphs shown are a representative experiment.
Adherent cells were seeded at 67×10^3 cells/mL in a 96 well plate (Falcon, Mississauga, Ontario) the day prior to exposure to compound. Suspension cells were seeded at 27×10^4 cells/mL in a 96 well plate the day of exposure to compound. Mononucleated, T-cell depleted normal bone marrow cells were seeded at 67×10^4 cells/mL in a 96 well plate the day of exposure to compound. Compounds and solvent control were added to cells and assayed in triplicate or sextuplet. […]
(Tetrazolium dyes change colour on reduction, which living cells bring about.)

Setting [2] is: Aspergillus flavus, 100 μg/disk, acetone.
The mark [3] stands for this setting: Aspergillus niger, 100 μg/disk, acetone.

`CSCSCS(C)(=O)=O` [B]: in assay [1], the Antifungal activity result is on record as “do not possess antiproliferative activity on either fungal or mammalian cells”.
Regarding `CS(C)(=O)=O` [Compound A, dimethyl sulfone], the “Diameter (mm) of clear Zone A. flavus” value with Aspergillus flavus (100 μg/disk, acetone) turned out to be 0 mm. In addition, in the assay on Aspergillus niger (100 μg/disk, acetone), the “Diameter (mm) of clear Zone A. niger” value worked out at 0 mm. In addition, the Antifungal activity entry in assay [1] is “do not possess antiproliferative activity on either fungal or mammalian cells”.
Regarding `CSSCS(=O)(=O)c1ccc(C)cc1` [Compound C, α-p-toluenesulfonyl dimethyl disulphide], in the assay with B1 leukemic cell line (B1), the IC50 is 13 µM. Moreover, the “Diameter (mm) of clear Zone A. flavus” value in the assay on Aspergillus flavus (25 μg/disk, acetone) is recorded as 8.0 mm. In addition, in the assay with Aspergillus niger (25 μg/disk, acetone), the “Diameter (mm) of clear Zone A. niger” value was 10.9 mm. In addition, the Antifungal activity entry in assay [1] was “possess antifungal and anti-mammalian cell activity”.
On to `CSCSSC` [Compound N, 2,3,5-trithiahexane], for which the IC50 in the assay on B1 leukemic cell line (Homo sapiens) amounted to 94.4 µM. Further, the zone of inhibition at 100 µg/disc in the assay on Aspergillus flavus (Aspergillus flavus) and with Aspergillus niger (Aspergillus niger) was 0 mm in each case.
`CSSCC(=O)c1ccccc1` [Compound P, phenacyl methyl disulphide]: the IC50 in the assay on B1 leukemic cell line (Homo sapiens, B1) worked out at 94.4 µM.
Consider `CCC(=O)OCSSc1ccccc1` [Compound Q, 1-phenyl-1,2-dithiapropyl propionate], for which the IC50 in the assay on B1 leukemic cell line (Homo sapiens, B1) is 14.3 µM. The zone of inhibition at 2.5 µg/disc in the assay on Aspergillus flavus (Aspergillus flavus, 2.5 μg/disk, acetone) was found to be 2.3 mm; with Aspergillus niger (Aspergillus niger, 2.5 μg/disk, acetone), 3.5 mm. The Antifungal activity result in assay [1] is on record as “potent antifungal compound”.
As to `c1ccc(SSc2ccccc2)cc1` [D, diphenyl disulphide], the zone of inhibition at 100 µg/disc in the assay on Aspergillus flavus (setting [2]) and in the assay on Aspergillus niger (setting [3]) was 0 mm in each case. Moreover, in assay [1], the Antifungal activity result is “do not possess antifungal activity”.
`CS(=O)(=O)CSSc1ccccc1` [E, 5-phenyl-2,4,5-trithiapentane 2,2-dioxide]: in the assay on B1 leukemic cell line (Homo sapiens, B1), the IC50 turned out to be 4.3 µM. Besides, the zone of inhibition at 25 µg/disc in the assay on Aspergillus flavus (Aspergillus flavus, 25 μg/disk, acetone) was found to be 1.8 mm; in the assay with Aspergillus niger (Aspergillus niger, 25 μg/disk, acetone), 0.8 mm. In addition, in assay [1], the Antifungal activity result is “possess antifungal and anti-mammalian cell activity”.
Take `CSSCCS(C)(=O)=O` [F, 2,3,6-trithiaheptane 6,6,-dioxide]: the “Diameter (mm) of clear Zone A. flavus” value in the assay with Aspergillus flavus (100 μg/disk, acetone) was 0 mm. In addition, the “Diameter (mm) of clear Zone A. niger” value in the assay on Aspergillus niger (100 μg/disk, acetone) is given as 0 mm. Further, in assay [1], the Antifungal activity result is reported as “do not possess antifungal activity”.
`CS(=O)(=O)CSCS(C)(=O)=O` [G, 2,4,6-trithiaheptane 2,2,6,6-tetraoxide]: the zone of inhibition at 100 µg/disc with Aspergillus flavus (setting [2]) and in the assay with Aspergillus niger (setting [3]) was 0 mm each time. Besides, the Antifungal activity result in assay [1] is reported as “do not possess antiproliferative activity on either fungal or mammalian cells”.
Consider `COC(=O)CSSC` [H, methyl 3,4-dithiopentanoate], for which the “Diameter (mm) of clear Zone A. flavus” value in the assay with Aspergillus flavus (100 μg/disk, acetone) was 0 mm. Moreover, in the assay on Aspergillus niger (100 μg/disk, acetone), the “Diameter (mm) of clear Zone A. niger” value is 0 mm. Further, in assay [1], the Antifungal activity result is listed as “do not possess antifungal activity”.
As to `CSSCOC(C)=O` [I, 2,3-dithiabutyl acetate], the zone of inhibition at 100 µg/disc in the assay on Aspergillus flavus (setting [2]) and with Aspergillus niger (setting [3]) was 2.3 mm each time. For the same compound, the Antifungal activity entry in assay [1] is “possess antifungal and anti-mammalian cell activity”.
As to `CSSc1ccc([N+](=O)[O-])cc1` [M, methyl p-nitrophenyl disulphide], in the assay with B1 leukemic cell line (Homo sapiens, B1), the IC50 worked out at 12.7 µM. Also, the zone of inhibition at 10 µg/disc in the assay on Aspergillus flavus (Aspergillus flavus, 10 μg/disk, acetone) amounted to 4 mm; in the assay with Aspergillus niger (Aspergillus niger, 10 μg/disk, acetone), 3.9 mm. Also, in the assay with Aspergillus niger (10 μg/disk, acetone, listed as p-CH3SS(C6H4)NO2), the “Diameter (mm) of clear Zone A. niger” value is given as 3.8 mm.
